# Experimental data: ChEMBL document CHEMBL3621154 (Medchemcomm, 2014)
# Legend:
# [1] = target: T1, Amine oxidase [flavin-containing] A (Homo sapiens, UniProt P21397)
# T1 sequence (P21397 whole entry): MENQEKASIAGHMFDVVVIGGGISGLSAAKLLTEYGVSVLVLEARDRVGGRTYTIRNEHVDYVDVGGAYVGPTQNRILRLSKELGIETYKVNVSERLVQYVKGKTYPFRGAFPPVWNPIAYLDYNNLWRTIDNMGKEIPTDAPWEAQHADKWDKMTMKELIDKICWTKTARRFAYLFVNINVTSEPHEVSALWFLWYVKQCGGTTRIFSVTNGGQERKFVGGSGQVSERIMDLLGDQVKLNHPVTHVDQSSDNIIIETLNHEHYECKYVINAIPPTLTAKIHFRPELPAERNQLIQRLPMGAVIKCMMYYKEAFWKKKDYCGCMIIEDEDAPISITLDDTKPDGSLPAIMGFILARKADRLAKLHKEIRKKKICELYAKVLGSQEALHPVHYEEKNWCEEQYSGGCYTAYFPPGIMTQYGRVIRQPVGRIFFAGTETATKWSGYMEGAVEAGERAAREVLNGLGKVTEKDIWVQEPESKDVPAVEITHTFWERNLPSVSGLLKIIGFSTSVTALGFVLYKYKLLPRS
# Description: Inhibition of MAOA (unknown origin) by luminiscent assay
# [2] = target: T2, Amine oxidase [flavin-containing] B (Homo sapiens, UniProt P27338)
# T2 sequence (P27338 whole entry): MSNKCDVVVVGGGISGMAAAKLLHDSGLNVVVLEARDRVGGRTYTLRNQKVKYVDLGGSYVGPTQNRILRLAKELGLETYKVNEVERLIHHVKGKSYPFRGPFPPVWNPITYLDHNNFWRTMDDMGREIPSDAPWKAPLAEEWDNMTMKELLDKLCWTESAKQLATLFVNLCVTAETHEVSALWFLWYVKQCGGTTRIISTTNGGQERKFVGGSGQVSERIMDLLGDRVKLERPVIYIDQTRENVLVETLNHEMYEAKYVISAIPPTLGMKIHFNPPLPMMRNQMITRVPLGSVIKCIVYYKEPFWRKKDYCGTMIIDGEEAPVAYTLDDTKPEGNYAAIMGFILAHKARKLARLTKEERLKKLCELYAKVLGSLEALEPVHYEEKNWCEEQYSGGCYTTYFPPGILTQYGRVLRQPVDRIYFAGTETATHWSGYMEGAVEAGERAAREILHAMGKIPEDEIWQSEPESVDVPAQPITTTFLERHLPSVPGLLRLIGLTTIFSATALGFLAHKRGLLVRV
# Description: Inhibition of MAOB (unknown origin) by luminiscent assay
IC50 [1] [µM],IC50 [2] [µM],SMILES
> 100,> 100,COc1ccccc1CNc1n[nH]c(NCc2ccccc2OC)n1
> 100,> 100,Nc1nnc(NCc2c(Cl)cccc2Oc2ccccc2)[nH]1
